Data set [1] deals with herpes simplex virus (HSV). The settings on record: compared with corresponding deoxyuridine analogs; cited from earlier work.
In data set [2] the test system is herpesvirus infected cells. As to conditions: cells in which deoxycytidine deaminase is present; cited from earlier work.
For the next data set, the system named is HSV type 1. The settings on record: cited from earlier work.
For a further data set, the system named is HSV type 2. As to conditions: cited from earlier work.
The subject of a further data set is equine herpesvirus. As to conditions: cited from earlier work.
Data set [3] deals with Herpes Simplex Virus--Type 1 (HSV-1) strain 2931. Nature of the data set: Capacity to suppress HSV-1 replication in monolayers of Vero cells. The settings on record: 24 hr, read-out: Anti-viral Activity (% reduction of HSV1 titer); for activity at 0.01 µg/mL: Human alphaherpesvirus 1, 0.01 μg/ml; for activity at 0.1 µg/mL: Human alphaherpesvirus 1, 0.1 μg/ml; for activity at 1 µg/mL: Human alphaherpesvirus 1, 1.0 μg/ml; for activity at 10 µg/mL: Human alphaherpesvirus 1, 10 μg/ml. In kind it is cell-based. The protocol:
The capacity of 2'-fluoro-arabinosyl nucleosides (Formulas IV and V shown below) to suppress replication of Herpes Simplex virus-type 1 (HSV-1) in monolayers of Vero cells is shown in Table I.
Vero cell monolayers were infected with approximately 1 plaque forming unit (PFU) per cell of Herpes Simplex Virus--Type 1 (HSV-1) strain 2931 and incubated for 2 hr. Maintenance media containing the various concentrations of drugs were used to overlay the monolayers. Supernatant fluids were collected 24 hr. later and titered on Vero cell monolayers described in Lopez et al, Ann. N.Y. Acad. Sci., 284, 351 (1977). Percent inhibition over controls was calculated.

A further data set concerns L51784. Nature of the data set: Cytotoxicity, inhibition of growth of L51784 cells in vitro. As to conditions: 96 h, read-out: Cytoxicity ID50. Type of data set: cell-based. The protocol:
(§1) *****Concentration required for 50% inhibition of growth of cells in
(§2) vitro after 96 hrs. incubation at 37° C.

For the next data set, the system named is P815. Nature of the data set: Cytotoxicity, inhibition of growth of P815 cells in vitro. Type of data set: cell-based. The settings on record: Mus musculus, 96 hrs. incubation at 37° C., read-out: Cytoxicity ID50. On the procedure:
as §1, §2

A further data set deals with several DNA virus. The settings on record: cell culture; cited from earlier work.
The subject of another data set is herpes infections. As to conditions: therapeutic trials in herpes infections; cited from earlier work.
Another data set concerns anti-viral. As to conditions: cited from earlier work.

≈ marks a conversion by molar mass, not a printed value.

Take `Nc1nc(=O)n([C@H]2C[C@H](O)[C@@H](CO)O2)cc1Br` [5-Bromo-2'-deoxycytidine]: the “inhibition of HSV replication” value in data set [1] is recorded as “as effectively as their corresponding deoxyuridine analogs”.
Turning to `Cc1cn([C@@H]2O[C@H](CO)[C@@H](O)[C@@H]2O)c(=O)nc1N` [5-Methyl-ara-C], in [2], the “activity against herpesvirus infected cells” value is on record as “active”.
Regarding `Nc1nc(=O)n([C@H]2C[C@H](O)[C@@H](CO)O2)cc1I` [5-iodo-2'-deoxycytidine], in data set [1], the “inhibition of HSV replication” value is on record as “as effectively as their corresponding deoxyuridine analogs”.
Consider `Cc1cn([C@@H]2O[C@H](CO)[C@@H](O)[C@@H]2O)c(=O)[nH]c1=O` [Ara-T], for which the “activity against HSV type 1” value in the data set on HSV type 1 was “active”. Besides, the “activity against HSV type 2” value in the data set with HSV type 2 is reported as “active”. Besides, in the data set with equine herpesvirus, the “activity against equine herpesvirus” value is given as “active”.
In the case of `Nc1ccn([C@@H]2O[C@H](CO)[C@@H](O)[C@@H]2F)c(=O)n1` [IVa, 1-(2-deoxy-2-fluoro-β-D-arabinofuranosyl)cytosine, reference compound], in data set [3], the activity at 0.01 µg/mL was less than 90%, the activity at 0.1 µg/mL was 90 to 99%, the activity at 1 µg/mL fell in the range of 90 to 99% and the activity at 10 µg/mL lay in the range of 99.9 to 100%. Moreover, the activity at 100 µg/mL in [3] (Human alphaherpesvirus 1, 100 μg/ml) came to 100%. The IC50 with L51784 turned out to be 0.05 µg/mL (≈ 0.204 µM). Further, the IC50 in the data set with P815 was 0.05 µg/mL (≈ 0.204 µM).
Regarding `Nc1nc(=O)n([C@@H]2O[C@H](CO)[C@@H](O)[C@@H]2F)cc1F` [IVb, 1-(2-deoxy-2-fluoro-β-D-arabinofuranosyl)-5-fluorocytosine], in data set [3], the activity at 0.01 µg/mL was less than 90%, the activity at 0.1 µg/mL fell in the range of 90 to 99%, the activity at 1 µg/mL is 99 to 99.9% and the activity at 10 µg/mL fell in the range of 99.9 to 100%. Also, in the data set with L51784, the IC50 turned out to be 0.5 µg/mL (≈ 1.9 µM). Also, in the data set on P815, the IC50 turned out to be 0.4 µg/mL (≈ 1.52 µM).
On to `Nc1nc(=O)n([C@@H]2O[C@H](CO)[C@@H](O)[C@@H]2F)cc1Cl` [IVc, 1-(2-deoxy-2-fluoro-β-D-arabinofuranosyl)-5-chlorocytosine], for which, in [3], the activity at 0.01 µg/mL was less than 90%, the activity at 0.1 µg/mL was less than 90%, the activity at 1 µg/mL was less than 90% and the activity at 10 µg/mL was 99.9 to 100%. Also, in the data set with L51784, the IC50 worked out at 1.4 µg/mL (≈ 5.01 µM). Moreover, the IC50 in the data set on P815 is approximately 1 µg/mL (≈ 3.58 µM).
On to `Nc1nc(=O)n([C@@H]2O[C@H](CO)[C@@H](O)[C@@H]2F)cc1Br` [IVd, 1-(2-deoxy-2-fluoro-β-D-arabinofuranosyl)-5-bromocytosine], for which, in data set [3], the activity at 0.01 µg/mL was less than 90%, the activity at 0.1 µg/mL lay in the range of 90 to 99%, the activity at 1 µg/mL was in the range of 99 to 99.9% and the activity at 10 µg/mL was determined as 100%. The IC50 with L51784 is approximately 10 µg/mL (≈ 30.9 µM). Also, the IC50 in the data set with P815 is more than 10 µg/mL.
In the case of `O=c1ccn([C@@H]2O[C@H](CO)[C@@H](O)[C@@H]2F)c(=O)[nH]1` [Va], in data set [3], the activity at 0.01 µg/mL is less than 90%, the activity at 0.1 µg/mL was less than 90%, the activity at 1 µg/mL lay in the range of 99 to 99.9% and the activity at 10 µg/mL lay within 99 to 99.9%. In addition, the IC50 in the data set on L51784 is more than 10 µg/mL. Also, in the data set on P815, the IC50 was more than 10 µg/mL.
For the compound `O=c1[nH]c(=O)n([C@@H]2O[C@H](CO)[C@@H](O)[C@@H]2F)cc1F` [Vb, 1-(2-deoxy-2-fluoro-β-D-arabinofuranosyl)-5-fluorouracil], in data set [3], the activity at 0.01 µg/mL is less than 90%, the activity at 0.1 µg/mL is 99 to 99.9%, the activity at 1 µg/mL turned out to be 100% and the activity at 10 µg/mL is 100%. Moreover, the IC50 with L51784 stood at 1 µg/mL (≈ 3.79 µM). Also, the IC50 with P815 is 0.7 µg/mL (≈ 2.65 µM).
On to `O=c1[nH]c(=O)n([C@@H]2O[C@H](CO)[C@@H](O)[C@@H]2F)cc1Cl` [Vc, 1-(2-deoxy-2-fluoro-β-D-arabinofuranosyl)-5-chlorouracil], for which, in [3], the activity at 0.01 µg/mL was less than 90%, the activity at 0.1 µg/mL was less than 90%, the activity at 1 µg/mL was less than 90% and the activity at 10 µg/mL was 100%. Also, the IC50 with L51784 turned out to be 1.4 µg/mL (≈ 4.99 µM). Further, in the data set with P815, the IC50 is 3.4 µg/mL (≈ 12.1 µM).
`O=c1[nH]c(=O)n([C@@H]2O[C@H](CO)[C@@H](O)[C@@H]2F)cc1Br` [Vd, 1-(2-deoxy-2-fluoro-β-D-arabinofuranosyl)-5-bromouracil]: in data set [3], the activity at 0.01 µg/mL is less than 90%, the activity at 0.1 µg/mL was less than 90%, the activity at 1 µg/mL was 99 to 99.9% and the activity at 10 µg/mL is 100%. Further, the IC50 in the data set on L51784 was 0.9 µg/mL (≈ 2.77 µM). Moreover, in the data set with P815, the IC50 stood at 1.6 µg/mL (≈ 4.92 µM).
With `O=c1[nH]c(=O)n([C@@H]2O[C@H](CO)[C@@H](O)[C@@H]2F)cc1I` [Ve, 1-(2-deoxy-2-fluoro-β-D-arabinofuranosyl)-5-iodouracil], in data set [3], the activity at 0.01 µg/mL was less than 90%, the activity at 0.1 µg/mL was in the range of 90 to 99%, the activity at 1 µg/mL lay within 99.9 to 100% and the activity at 10 µg/mL came to 100%. Moreover, in the data set with L51784, the IC50 amounted to 0.9 µg/mL (≈ 2.42 µM). Further, the IC50 with P815 came out at 0.8 µg/mL (≈ 2.15 µM).
Consider `Nc1ccn([C@@H]2O[C@H](CO)[C@@H](O)[C@@H]2O)c(=O)n1` [ara-C, 1-β-D-Arabinofuranosylcytosine], for which the “inhibition of multiplication of several DNA virus” value in the data set on several DNA virus is reported as “inhibits the multiplication of several DNA virus in cell culture”. For the same compound, the “therapeutic to toxic ratio” value with herpes infections is given as “unity”.
Regarding `O=c1ccn([C@@H]2O[C@H](CO)[C@@H](O)[C@@H]2O)c(=O)[nH]1` [ara-U, 1-β-D-arabinofuranosyluracil], the anti-viral activity entry with anti-viral was “devoid of anti-viral or anti-cancer activity”.

Values taken from patent publication US4211773A, “5-Substituted 1-(2'-Deoxy-2'-substituted-β-D-arabinofuranosyl)pyrimidine nucleosides” (Sloan Kettering Institute for Cancer Research, priority 1978, dated 1980).
